According to patent publication US9796674B2, “Benzyl urea derivatives for activating TGF-beta signaling” (THE BOARD OF TRUSTEES OF THE LELAND STANFORD JUNIOR …, priority 2013, dated 2017):
Entries after “also recorded” stand apart in the source; their conditions may differ.

Legend:
TGF-β signaling [1] = experiment: F11 SBE-SEAP reporter cell assay; assay type: cell-based, mouse; conditions: F11 SBE-SEAP reporter cell line
From the text: In another aspect, methods are provided for treating or preventing the progression of a disease or condition characterized by a reduction in TGF-β signaling. One category of such diseases or conditions is neurodegenerative disorders. One example is Alzheimer's disease (AD), or another disease characterized by the deposition of amyloid plaques and overall accumulation of Aβ in the brain. Experiments performed in support of the present compositions and methods are described, below. • TGF-β reporter gene and cells for screening compounds: An in vitro screening method was developed to identify small-molecule chemical compounds with TGF-β1-like bioactivity. The method utilized a fusion gene consisting of the luciferase or secreted alkaline phosphatase (SEAP) reporter gene under control of the TGF-β responsive Smad-binding element (SBE) minimal promoter sequence, as shown in FIGS. 1A and 1B. To screen for compounds that mimic TGF-β bioactivity, reporter cell lines were prepared by stably-integrating SBE-SEAP into C6 astrocytoma cells, a primary astrocyte line derived from tgfb1^−/− mice, a mouse embryonic fibroblast cell line derived from tgfb1^−/− mice (MFB-F11), and NG108-15 neuroblastoma cells. Such cell lines remained stable for at least 20 passages. Use of a tgfb1^−/− genetic background avoids interference by the […] tgfb1 gene. • Initial compound screening: A library with 5,000 chemically diverse small molecules (average Mr 200 Da) was obtained from Comgenex LLC (South San Francisco, Calif.). […]
The compounds were all tested in the F11 cell activity assay (fibroblast stably transfected with SBE-SEAP construct). […] Compounds with promising activity were evaluated using tier 1 assays such as permeability assays to measure blood-brain barrier transport, metabolic stability assays, and solubility assays. […]

TGF-β signaling [2] = experiment: Bioluminescence in SBE-luc reporter mice; assay type: in vivo, mouse; conditions: brain/CNS bioluminescence
Method: The most promising compounds out of these screens were tested for their neuroprotective potential in B103 rat neuroblastoma cells and primary mouse neurons derived from E16 forebrains. Compounds were also tested for their capacity to reduce varicosities and tortuosity in primary mouse neurons. Accordingly, novel neuroprotectant small molecules have been identified that are as potent or better than TGF-β. Importantly, they fulfilled the critical neuroprotective properties in neuronal cell lines and primary hippocampal mouse neurons. • Compounds based on the 11H core: The present compositions and methods include salts of the active compounds and formulations, in particular pharmaceutically acceptable compositions for administration to an animal or human subject and containing active compounds. 129 analogs or derivatives of 11H were screened by a cell-based assay for their ability to increase TGF-β activity, i.e. to act as a TGF agonist. In particular, one compound (a) designated as SRI-011381 (381) was identified as especially advantageous, although active derivatives thereof are contemplated and have been identified. • Effects of TGF-β analogs in vitro: Some of the small-molecule TGF-β agonist compounds were tested for neuroprotection activity and toxicity in vitro (cell culture). In addition, the mechanism of action of the agonists was explored using cells with different genetic backgrounds with respect to protein of the […] signaling pathway. • Animal studies: Transgenic mice harboring the SBE-luc reporter gene were generated and used to test the derivatives of compound 11H in vivo. These “reporter mice” mice express SBE-luc (i.e., “the transgene”) in all cells of the body. Intraperitoneal injection of luciferin into SBE-luc-expressing mice produces bioluminescence generated by luciferase and photons penetrating the skull can be imaged using sensitive camera systems.
SBE-luciferase transgenic mice: Two-month old SBE-luciferase transgenic mice receive different concentrations of a test compound either s.q., ip., or orally by gavage. […] Following administration of the test or control compounds, mice are injected with luciferin ip. At, for example, 2, 8, and 16 hours following injection of luciferin, the mice are imaged to detect bioluminescence as described above. Brains may be harvested 16 hours following test compound injection, and may be divided sagittally. For example, one hemi-brain can be homogenized in luciferase assay buffer for measurement of reporter gene activation, while the other hemi-brain can be frozen at −70° C. for future study, including sectioning into individual brain regions

SMILES | activity in the reporter cell assay (TGF-β signaling [1]) | activity in the reporter cell assay (TGF-β signaling [1]; listed as 381) | activation of TGF-β signaling in SBE-luc reporter mice (TGF-β signaling [2]) | activation of TGF-β signaling in SBE-luc reporter mice (TGF-β signaling [2]; listed as 381)
O=C(NC1CCCCC1)N(Cc1ccccc1)CC1CCNCC1 [SRI-011381, 1-Benzyl-3-cyclohexyl-1-(piperidin-4-ylmethyl)urea] | showed activity | activates TGF-β signaling in reporter cell line | penetrate into the CNS and activate TGF-β signaling; also recorded: bioavailable in the CNS and activate TGF-β signaling; also recorded: activates TGF-β signaling in the brain | activates TGF-β signaling in reporter mice
O=C(NC1CCCCC1)N(C/C=C/c1ccc(F)cc1)CC1CCNCC1 [SRI-011382] | superior activity | – | bioavailable in the CNS and activate TGF-β signaling | –
